We go through 88 compounds from a melting point compilation (Tetko et al.).

The term melting point denotes the temperature of the solid-liquid transition. With `CCOc1cc(CC#N)cc(Cl)c1OC(F)F`, the melting point was 79 to 81 °C. Compound `Cc1cn(CC(=O)O)c2ccccc12` showed a melting point of 175 to 177 °C. The value for `Cc1ccc(NC(=O)C(Cl)c2ccccc2)cc1Cl` (stereo not drawn) was 120 to 122 °C; that for `Nc1nc2c(s1)CCCC2` was 30 to 32 °C; that for `COc1cc(C=O)cc(O)c1O` was 131 to 134 °C. The compound `CC(C)c1cccc(OCC(=O)O)c1` gave a melting point of 65 to 67 °C. For the compound `CC(=O)c1ccc(N2CCCC2=O)cc1`, the melting point was in the range of 127 to 131 °C.

`O=C1CNC(=O)N1Cc1ccc(Cl)c([N+](=O)[O-])c1` came in with a melting point of 183 to 185 °C. For `CCOC(=O)c1n[nH]c(C(O)c2ccccc2)n1` (stereo not drawn), the melting point was in the range of 49 to 51 °C. Turning to `CC(CC(=O)O)C1CCNCC1` (stereo not drawn), the melting point lay within 255 to 257 °C. The value for `CSc1ccc(S(=O)(=O)Cl)cc1` was 46 to 48 °C; that for `CC(C)(C)OC(=O)NCc1ccc(C(=O)O)o1` was 131 to 133 °C; that for `CC1CCCCN1S(=O)(=O)c1ccc(C(=O)O)cc1` (stereo not drawn) was 201 to 205 °C. As to `N#Cc1ccc(Cn2cncn2)c(F)c1`, the melting point was 107 to 109 °C. Next, `O=C(O)Cc1ccc(S(=O)(=O)Cl)cc1`: 131 to 133 °C; `CC(C)C(NC(=O)c1ccco1)C(=O)O` (stereo not drawn): 103 to 105 °C.

For `Nc1ccc(Sc2ccncc2)cc1`, the melting point was 169 to 171 °C. Regarding `N#CC(N)c1cccc(Cl)c1Cl` (stereo not drawn), the melting point was 114 to 116 °C. Next, `CC(C)Cc1ccc(C=CC(=O)O)cc1`: 159 to 161 °C; `[N-]=[N+]=NC(=O)c1ccco1`: 60 to 62 °C. The compound `O=C(O)c1ccc(Oc2ccccc2Cl)cc1` registered a melting point of 144 to 146 °C. `Nc1cncc(Br)c1` returned a melting point of 65 to 69 °C. Compound `CC(Cl)C(=O)NC12CC3CC(CC(C3)C1)C2` (stereo not drawn) displayed a melting point of 103 to 105 °C. `COC(=O)c1snc(-c2ccccc2)c1N` gave a melting point of 114 to 116 °C. As to `CNC(c1cccnc1)c1ccc(Cl)cc1Cl` (stereo not drawn), the melting point lay in the range of 111 to 113 °C. In turn, `O=C(O)CNC(=O)Nc1ccccc1` gave a melting point of 196 to 198 °C. Next, `Cc1nc2c(s1)C(O)CCC2` (stereo not drawn): 80 to 82 °C. The value for `O=C(O)c1cccc(NC(=O)c2ccc(F)cc2)c1` was 279 to 281 °C. Regarding `COCCNC(C)(C)CO`, the melting point fell in the range of 44 to 46 °C. On to `CC(c1nnc(S)n1-c1ccc(F)cc1)N(C)C` (stereo not drawn), for which the melting point was in the range of 169 to 171 °C. Turning to `COc1ccc(S(=O)(=O)N2CCCCC2)cc1N`, the melting point lay in the range of 137 to 139 °C. Next, `CC(C)(C)OC(=O)N1CCC(CC(=O)O)(C(=O)O)C1` (stereo not drawn): 180 to 182 °C; `CC(C)C(Br)C(=O)NCC1CCCO1` (stereo not drawn): 53 to 55 °C. In turn, `Cc1ccc(-c2nn(-c3ccccc3)cc2C=O)cc1C` had a melting point of 102 to 104 °C. As for `CCOc1cc2c(cc1OCC)CNCC2`, the melting point lay within 108 to 110 °C. `Cc1cccc(C2(C(=O)O)CC2)c1` yielded a melting point of 107 to 109 °C.

Compound `Brc1cccc2cnoc12` yielded a melting point of 79 to 81 °C. Next, `COc1cc(OC)cc(-c2nnc(S)n2N)c1`: 178 to 180 °C; `ClCc1nc(-c2ccc3c(c2)OCO3)no1`: 50 to 52 °C. The compound `O=C1OC(CCl)CN1c1ccccc1` (stereo not drawn) registered a melting point of 103 to 105 °C.

For the compound `CC(C)C(Nc1ccc(C(F)(F)F)cc1Cl)C(=O)O` (stereo not drawn), the melting point lay within 128 to 132 °C. The compound `C#CCNC(=O)Nc1ccccc1F` came in with a melting point of 134 to 136 °C. In turn, `Cc1nn(C)c(C(F)(F)Cl)c1C(=O)O` returned a melting point of 122 to 124 °C. As for `O=C(O)Cc1c(F)cncc1Cl`, the melting point is 99 to 101 °C. On to `O=C(O)CNc1ccc(C(F)(F)F)cn1`, for which the melting point fell in the range of 134 to 136 °C. Regarding `CC(Sc1ccc(C#N)cc1)C(=O)O` (stereo not drawn), the melting point fell in the range of 114 to 116 °C.

The compound `ClCc1nc(-c2cccc(Cl)c2)no1` displayed a melting point of 38 to 42 °C. Regarding `O=C(O)c1cccc(CSc2c(Cl)cccc2Cl)c1`, the melting point lay within 222 to 224 °C. The value for `O=C(O)c1ccc(CNC(=O)C2CCCC2)cc1` was 228 to 230 °C. Next, `O=C(O)COc1ccc2cc(Br)ccc2c1`: 224 to 226 °C; `O=[N+]([O-])c1cc(S(=O)(=O)NCCN2CCOCC2)ccc1Cl`: 119 to 121 °C; `CC(C)(C)C(=O)Nc1ccccc1C(=O)O`: 157 to 159 °C. As for `COc1ccc2c(c1)C=C(C#N)CO2`, the melting point was 72 to 74 °C.

For the compound `Nc1cc(Br)ccc1C(=O)O`, the melting point lay within 222 to 224 °C.

Compound `COC(=O)c1n[nH]c(C)c1Br` yielded a melting point of 148 to 150 °C. `Nc1ccc(-n2ncc3ccccc32)cc1` had a melting point of 158 to 160 °C. Next, `O=C(O)c1cc(OCC(F)(F)F)ccc1[N+](=O)[O-]`: 156 to 158 °C; `Nc1cccc(-c2n[nH]c3c2CCC3)c1`: 168 to 170 °C; `CNS(=O)(=O)c1ccc2c(c1)CCN2`: 124 to 126 °C. `NCC(O)COc1ccc(I)cc1` (stereo not drawn) registered a melting point of 129 to 131 °C.

With `CCOc1cccnc1C(=O)O`, the melting point lay within 130 to 132 °C. Consider `CCc1cc2c(n1Cc1ccccc1)CCCC2=O`, for which the melting point lay within 59 to 61 °C. Compound `CN(C)C(=O)N1CCC(C(=O)O)CC1` registered a melting point of 146 to 148 °C. As for `Nc1ccc(Cl)cc1-c1nc2ccccc2[nH]1`, the melting point fell in the range of 236 to 238 °C. As for `O=Cc1cscn1`, the melting point was in the range of 61 to 63 °C. Take `NCc1cccc(NC(=O)C2CCCC2)c1`: the melting point fell in the range of 86 to 88 °C.

Turning to `CS(=O)(=O)Nc1cc(C(=O)O)ccc1Cl`, the melting point lay within 275 to 277 °C. Turning to `NC(=S)COc1ccccc1`, the melting point fell in the range of 111 to 115 °C. Consider `Cc1ccc(CC(=O)Nc2cccc(C(C)O)c2)cc1` (stereo not drawn), for which the melting point lay within 121 to 123 °C. In turn, `COC(=O)Nc1ccc(CO)cc1` returned a melting point of 79 to 81 °C. The value for `CNc1c(F)cccc1C(N)=O` was 186 to 188 °C.

The compound `O=C(O)c1cc(-c2cccnc2)on1` showed a melting point of 179 to 181 °C. As for `N#CCc1cc(Cl)c2c(c1)OCCO2`, the melting point fell in the range of 102 to 104 °C. Consider `Cc1cc([N+](=O)[O-])ccc1NC(=O)CCCl`, for which the melting point was 147 to 149 °C. `CC1=NNC(=O)C1CCN` (stereo not drawn) yielded a melting point of 229 to 231 °C. `CC(=O)Nc1cc(N)ccc1Cl`: the melting point lay within 200 to 202 °C. As to `CCCOc1c(Cl)cc(C#N)cc1OC`, the melting point lay in the range of 31 to 33 °C.

Compound `CCNC(=O)Cc1ccc(N)cc1` came in with a melting point of 117 to 119 °C. Take `Nc1ccccc1C(=O)Nc1ccc(F)cc1`: the melting point was 109 to 112 °C. For `NCc1ccc(OCCOc2ccc(Cl)cc2)cc1`, the melting point is 130 to 132 °C. The value for `CCOCCCNC(=O)CC#N` was 45 to 49 °C.

For `Nc1ncc(Cc2ccc(Br)cc2)s1`, the melting point lay within 129 to 131 °C. `CC(=O)c1ccc2c(c1)CC(=O)N2C` came in with a melting point of 176 to 178 °C. The value for `CC(C)c1nc(N)n(C)n1` was 108 to 110 °C; that for `COC(=O)c1ccc(C#N)cc1OC` was 101 to 103 °C; that for `Cc1cc(C)n2nc(S)nc2n1` was 259 to 261 °C. For `CC(C)c1ccc(C(N)CC(=O)O)cc1` (stereo not drawn), the melting point was 234 to 236 °C. With `NC(=O)CC1CCNCC1`, the melting point is 146 to 148 °C.
